Data as given in US20110201105A1, “LACTATION-ASSOCIATED POLYPEPTIDES” (Dairy Australia Limited, priority 2007, published 2011).

B1: LAM 17: FGL2: Fibrinogen like-1 (Table 24); tammar polypeptide SEQ ID NO 47, bovine SEQ ID NO 107 (protein, UniProt Q29RY7 16-441, looked up)
Fibroleukin: TYGFLVVANNETEEIKDEAAQNACRVRLESRGRCEEEGECPYQVNLPPLTIQLPKQFSRIEEVFKEVQNLKEIVNSLKKTCQDCKLQADDSRDPGRNGLLLPGTGAPGETGDNRVRELEGEVNKLSSDLKNAKEEIDVLQGRLEKLNLVNMNNIEQYVDSKVANLTFVVNSLDGKCSSKCPRQEQIQSLPVQQHLIYKDCSEYYTIGKRSSELYRVTPEPRNSSFEVFCDMETMAGGWTVLQARVDGSTNFTRTWQDYKVGFGNLRREFWLGNDKIHLLTKSKDMILRIDLEDFNGIKLYALYDHFYVANEFLKYRLHIGNYNGTAGDALRFSKHYNHDLKFFTTPDRDNDRYPSGNCGLYYSSGWWFDACLSANLNGKYYHQKYRGVRNGIFWGTWPGISEAQPGGYKSSFKEVKMMIRPKHFKP

Tests used:
chicks = test: Chick growth assay (in ovo injection, weight at hatching); assay type: in vivo; conditions: for Chick weight: bovine polypeptides in conditioned media, 1 ml in ovo on day 16 of incubation, weighed on day of hatching, Saline 51.0
Experimental: FIG. 5. Chick growth assay by measuring weight. 10 LAMs (being bovine homologues having homology to specific Tammar ESTs), 3 known bovine cathelicidins, and four bovine cathelicidin variants were tested. Conditioned media containing a LAM polypeptides or bovine cathelicidins or variants thereof was diluted in a total of 1 ml of normal saline. Eggs on day 16 of incubation were injected with 1 ml of the media containing the into the broad end of the egg. Chicks were weighed on day of hatching. The overall condition of the chick was assessed including the possible presence of stumpy legs and/or loss of down feathers.
Conditioned media containing LAM polypeptides or bovine cathelicidins or variants thereof were diluted in a total of 1 ml of normal saline. Eggs on day 16 of incubation were injected in ovo with 1 ml of LAM polypeptides or bovine cathelicidins or variants thereof into the broad end of the egg. Chicks were weighed on day of hatching. Controls included saline only, or saline and 10 mg/ml of a peptide as a random peptide control.
As set out in Table 23, the left column indicates the polypeptide used in the assay while the right column contains chick weight in grams as a measurement of chick growth. Bolded numbers represent a chick(s) larger than the controls and more than 2 standard deviations from the mean. In addition, bolded numbers represent chicks that have been killed. The mean represents the weight of all the chicks tested within this experiment.

AGS cells = test: Cell growth using bovine cathelicidin variants in AGS cells (SRB assay); assay type: cell-based, human; design: unit not given here; conditions: 72 hours; for cell growth Replicate 3: -ve control 0.233; for cell growth Replicate 1: -ve control 0.247; for cell growth Replicate 4: -ve control 0.265; for cell growth Replicate 2: -ve control 0.316; for cell growth Mean: -ve control mean 0.265
Experimental: A cellular growth assay was performed using seven bovine cathelicidin (CATHL) variants, namely CATHL1, 4, and 6 which are known in the art (the relevant sequences can be obtained using the following hyperlink: http://www.ncbi.nlm.nih.gov/entrez/query.fcqi?db=unigene&cmd=search&term=cathelicidin) and bovine Cathelicidins 8, 9, 10 and 11 (being LAMs 32.8, 32.9, 32.10 and 32.11, respectively) as identified herein and which are derived from LAM 32. The bovine cathelicidin associated LAMs were derived by sequence comparison to the tammar polynucleotide sequence of LAM 32.
The growth rate of AGS cells was assessed in the presence of the cathelicidins. Equal numbers of human gastric epithelial AGS cells were cultured in either control media or media conditioned with bovine cathelicidins for 72 hours in a 1:10 dilution of serum and antibiotic-free Optimem. Cells were then fixed and a Sulforhodamine B (SRB) colorimetric assay was undertaken as described in Journal of Immunological Methods 208: 151-158, K. T. Papazisis, G. D. Geromichalos, K. A. Dimitriadis, A. H. Kortsaris (1997), ‘Optimization of the sulforhodamine B colorimetric assay’.
Briefly, cells were fixed directly by incubation with 10% trichloroacetic acid for 1 hour at 4° C., washed with water, air-dried overnight and then stained with 0.4% w/v sulforhodamine B, 1% acetic acid solution for 10 minutes at room temperature. Cell were again washed with 1% acetic acid and air-dried, then counted in triplicate.

ERK = ERK assay for cell growth-promoting activity (TGR assay), Swiss 3T3 fibroblast cells; assay type: cell-based; conditions: tammar LAM corresponding to the bovine sample of Table 24
Experimental: (§1) Plasmids containing Tammar wallaby LAMs were directionally cloned into the expression vector pCMV Sport 6.0, and then transfected into the human kidney cell line HK293. A total of 1 μg of LAM-containing plasmid DNA and 10 ng of pEGFP-C1 plasmid was introduced into 70% confluent HK293 cells in 2 cm^2 wells containing 500 ul of opti-MEM-1 media. Transfection success was assessed by observing green fluorescence of cells by fluorescent microscopy. After 48 hours conditioned media containing the secreted polypeptide was collected and frozen at −20° C. The media containing the secreted polypeptides was then used directly in a variety of bioactivity assays. For the assays described below, samples of secreted polypeptides were aliquoted into individual wells of 96 or 384 well plates and stored, prior to assaying, either frozen or lyophilized.
(§2) A negative control created by transfection with an insertless vector was used in all assays. For the assays described in Examples 4A, 4B, 4C and 4D results for samples were in the form of relative fluorescence units (RFU) as described herein. […] In some cases, RFU less than two standard deviations from the mean were considered significant if the LAM sample in question produced a positive result in another assay.
Extracellular signal-regulated protein kinase (ERK) is a common and central signal transduction pathway component of tyrosine kinase receptor. Activation of ERK is indicative of an extracellular proliferation signal and provides an index of a growth promoting agent.
Swiss 3T3 fibroblast cells were plated into 384 well plates, grown to confluence and starved overnight with serum-free medium. Cells were then treated for 10 minutes with a LAM polypeptide prepared as described above. Cells were then lysed and assayed for activation of ERK. Samples were assessed for changes in the activity of ERK.
The results of ERK activation assays are shown in Table 6 as relative fluorescence units (RFU). […] These same samples are equated with LAM numbers as represented in Table 7. […]

[1] = test system: HSC-2 oral epithelial cells; test: Cell viability assay to assess anti- and pro-apoptotic effects (vinblastine, Alamar Blue); assay type: cell-based; conditions: HSC-2 cells
Experimental: as §1, §2
Vinblastine is a commonly used cytotoxic agent used in chemotherapy. It induces apoptosis in a wide variety of cell types. Caspase activation and DNA fragmentation are hallmarks of the apoptotic process.
Aliquots of the secreted polypeptide samples in 96 well plates were pipetted onto HSC-2 oral epithelial cells and the cells left for 24 hours. After this time, the cells were treated with vinblastine to induce apoptosis. After a further 48 hours, the cells were analyzed for survival using a vital dye, namely Alamar Blue (resazurin) fluorescent dye (TGR BioSciences Pty Ltd, Adelaide, Australia). This dye method is a TGR proprietary assay technology and as such would be known by a person skilled in the art. Internal controls for induction of cell death via apoptosis as well as assay performance were also included on each plate. Cell survival measurements with this technique reflected the degree of apoptosis.

p38 MAPK = p38 MAPK assay of inflammatory activity in the presence of LPS, RAW macrophage cells; assay type: cell-based
Experimental: as §1
A negative control created by transfection with an insertless vector was used in all assays. For the assays described in Examples 4A, 4B, 4C and 4D results for samples were in the form of relative fluorescence units (RFU) as described herein. […]
Activation of p38 MAPK was assessed in RAW macrophage cells in the presence of lipopolysaccharide (LPS), which is a potent stimulator of the immune system and which mimics bacterial infection, thereby providing a model system for inflammation. […]

Molecule	Chick weight (chicks)	cell growth Replicate 3 (AGS cells)	cell growth Replicate 1 (AGS cells)	cell growth Replicate 4 (AGS cells)	cell growth Replicate 2 (AGS cells)	cell growth Mean (AGS cells)	tammar ERK activity (ERK)	death / overall condition of chick (chicks; in ovo injection on day 16 of incubation)	RFU (pro-apoptotic activity) ([1]; Alamar Blue, Mean RFU 1758076, SD RFU 108156)	anti- or pro-apoptotic activity (RFU versus mean) ([1]; text summary of Tables 8-11)	anti-inflammatory activity (RFU significantly below the mean) (p38 MAPK; RAW macrophage cells with LPS, text summary of Tables 14 and 15)	RFU (p38 inhibition, anti-inflammatory activity) (p38 MAPK; RAW macrophage cells, 30 minutes sample then LPS 30 minutes, Mean RFU 35980, SD RFU 4227, negative control 45833 RFU)
CATHL1: bovine cathelicidin 1, known in the art (RLCRIVVIRVCR; UniProt P22226 144-155, looked up) [reference compound]	52.8 grams	0.303	0.412	0.378	0.419	0.378	yes					
CATHL2: bovine cathelicidin listed under LAM32, sample number 15 (RFRPPIRRPPIRPPFYPPFRPPIRPPIFPPIRPPFRPPLGPFP; UniProt P19660 131-173, looked up)							yes					
CATHL5: bovine cathelicidin 5 (known sequence) (GGLRSLGRKILRAWKKYGPIIVPIIRIG; UniProt P54229 132-159, looked up) [reference compound]	Killed	0.382	0.423	0.415	0.441	0.415	yes	caused death of chicks				
B1	49.2 grams								1478245 RFU	pro-apoptotic activity	anti-inflammatory activity	20814 RFU
